The source of these data is paper PMC5846083 (Journal of Medicinal Chemistry, 2018).

Series [1] concerns the target Na,K-ATPase α4 (Rattus norvegicus, UniProt Q64541). Kind of series: Inhibition of Na,K-ATPase α4 activity. The conditions noted are these: for reduced activity compared to ouabain: Na,K-ATPase α4 inhibition; for loss of Na,K-ATPase α4 inhibitory activity versus comparator: 29 versus 32, 19 versus 25; for IC50 for Na,K-ATPase α4 inhibition (Figure 1): recombinant rat α4, mean of two experiments in quadruplicate. The format is biochemical.

Series [2] concerns the target hERG (Homo sapiens, UniProt Q12809). The experiment in a line: hERG competitive displacement fluorescence polarization assay. For orientation: Block of hERG is tested as a sign of cardiac risk.
For series [3], the system named is rat sperm. The experiment in a line: Rat sperm motility in vitro. The format is cell-based. The conditions noted are these: for maximum reduction of sperm motility: even at high concentrations.
The test system of series [4] is rat sperm. Kind of series: Sperm hyperactivated motility under capacitating conditions. The following applies: 10^–8 M, 1 h, capacitating medium.
For series [5], the system named is rat sperm. Kind of series: Sperm membrane potential. The format is cell-based. The following applies: 10^–8 M, 1 h.
For series [6], the system named is rat sperm. The experiment in a line: Sperm intracellular pH, SNARF-1. The format is cell-based. The conditions noted are these: 10^–8 M, 1 h.
Series [7] relates to rat sperm. The experiment in a line: Sperm intracellular Ca2+, Calcium Green. The format is cell-based. The conditions noted are these: 10^–8 M, 1 h.
Series [8] in a line: General toxicity in treated rats. The format is in vivo, rat. The following applies: oral gavage, 5–20 mg/kg.
Series [9] relates to human Na,K-ATPase α4. The following applies: human isoforms; cited from earlier work.

Each structure is given as a SMILES string.

For orientation: IC50 means the point on the concentration scale where inhibition reaches its midpoint. A low value points to inhibition by little substance.

Chain of hERG (Q12809 whole entry): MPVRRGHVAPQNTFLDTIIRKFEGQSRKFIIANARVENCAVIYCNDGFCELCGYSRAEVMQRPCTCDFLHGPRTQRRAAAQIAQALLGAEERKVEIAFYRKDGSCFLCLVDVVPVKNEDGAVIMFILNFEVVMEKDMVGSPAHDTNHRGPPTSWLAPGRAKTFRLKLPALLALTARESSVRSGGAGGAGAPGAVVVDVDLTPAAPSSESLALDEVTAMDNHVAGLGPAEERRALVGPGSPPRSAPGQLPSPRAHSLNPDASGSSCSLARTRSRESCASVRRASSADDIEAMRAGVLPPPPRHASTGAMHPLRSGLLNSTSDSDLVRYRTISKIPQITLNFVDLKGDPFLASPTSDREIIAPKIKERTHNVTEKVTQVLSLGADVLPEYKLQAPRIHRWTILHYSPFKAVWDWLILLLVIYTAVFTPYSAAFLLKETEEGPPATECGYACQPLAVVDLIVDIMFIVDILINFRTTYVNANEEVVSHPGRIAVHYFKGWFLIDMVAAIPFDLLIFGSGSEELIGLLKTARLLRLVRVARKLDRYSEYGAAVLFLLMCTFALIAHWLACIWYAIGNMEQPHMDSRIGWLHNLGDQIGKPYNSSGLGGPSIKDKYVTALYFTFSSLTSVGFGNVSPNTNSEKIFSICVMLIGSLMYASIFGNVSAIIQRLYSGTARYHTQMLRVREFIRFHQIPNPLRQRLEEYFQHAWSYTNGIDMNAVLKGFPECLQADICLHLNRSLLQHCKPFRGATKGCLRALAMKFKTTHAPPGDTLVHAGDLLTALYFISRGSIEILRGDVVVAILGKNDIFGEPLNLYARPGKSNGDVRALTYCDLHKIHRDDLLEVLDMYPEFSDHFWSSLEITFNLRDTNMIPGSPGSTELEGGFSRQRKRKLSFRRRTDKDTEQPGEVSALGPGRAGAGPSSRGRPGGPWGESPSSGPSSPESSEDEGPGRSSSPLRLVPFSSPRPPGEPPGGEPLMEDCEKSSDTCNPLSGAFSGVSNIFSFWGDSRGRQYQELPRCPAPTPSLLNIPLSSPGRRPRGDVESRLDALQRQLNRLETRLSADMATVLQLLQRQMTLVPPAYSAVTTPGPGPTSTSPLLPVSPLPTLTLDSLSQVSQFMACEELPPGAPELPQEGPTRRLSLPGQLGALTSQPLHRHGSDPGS
Chain of Na,K-ATPase α4 (Q64541 whole entry, other chains not shown): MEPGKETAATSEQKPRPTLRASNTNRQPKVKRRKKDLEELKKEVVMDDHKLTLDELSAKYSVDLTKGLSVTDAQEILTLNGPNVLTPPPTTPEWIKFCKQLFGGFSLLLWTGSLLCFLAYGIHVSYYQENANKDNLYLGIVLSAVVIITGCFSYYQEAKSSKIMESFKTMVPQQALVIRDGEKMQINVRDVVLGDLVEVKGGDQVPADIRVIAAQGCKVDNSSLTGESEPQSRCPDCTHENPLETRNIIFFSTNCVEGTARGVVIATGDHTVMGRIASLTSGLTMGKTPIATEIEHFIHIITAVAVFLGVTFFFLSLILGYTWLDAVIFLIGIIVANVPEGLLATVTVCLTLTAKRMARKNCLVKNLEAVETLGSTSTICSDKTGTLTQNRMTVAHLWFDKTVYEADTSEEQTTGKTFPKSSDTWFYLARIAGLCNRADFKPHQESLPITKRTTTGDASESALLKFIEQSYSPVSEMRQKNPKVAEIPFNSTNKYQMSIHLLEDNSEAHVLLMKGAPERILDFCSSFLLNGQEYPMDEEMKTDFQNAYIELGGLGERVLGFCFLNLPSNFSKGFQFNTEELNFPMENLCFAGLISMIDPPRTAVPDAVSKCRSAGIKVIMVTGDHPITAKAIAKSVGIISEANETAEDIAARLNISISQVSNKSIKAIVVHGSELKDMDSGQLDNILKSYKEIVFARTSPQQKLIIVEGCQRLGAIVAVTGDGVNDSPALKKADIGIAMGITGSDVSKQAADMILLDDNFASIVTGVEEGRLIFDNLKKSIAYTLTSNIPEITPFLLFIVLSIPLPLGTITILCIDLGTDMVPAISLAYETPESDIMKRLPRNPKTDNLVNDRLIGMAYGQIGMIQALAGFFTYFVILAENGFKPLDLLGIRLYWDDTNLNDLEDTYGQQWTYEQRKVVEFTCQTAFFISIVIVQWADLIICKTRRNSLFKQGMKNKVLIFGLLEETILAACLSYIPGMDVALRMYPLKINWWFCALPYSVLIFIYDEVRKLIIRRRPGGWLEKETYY

As for `C[C@]12C[C@@H](O)[C@H]3[C@@H](CC[C@]4(O)C[C@@H](O)C[C@@H](O)[C@]34CO)[C@@]1(O)CCC2c1cn(Cc2ccc(F)cc2)nn1` (mixture of isomers) [Compound 27, (1R,3S,5S,8R,9S,10R,11R,13R,14S,17S)-17-(1-(4-Fluorobenzyl)-1H-1,2,3-triazol-4-yl)-10-(hydroxymethyl)-13-methyltetradecahydro-5H-cyclopenta[a]phenanthrene-1,3,5,11,14(2H)-pentaol], 0.03 µM corresponded to half-maximal inhibition in [1] (IC50).

In series [2], `COCO[C@@H]1[C@H]2OC(C)(C)O[C@H]2[C@H](O[C@H]2C[C@H]3OC(C)(C)OC[C@]34[C@@H]3[C@@H](CC[C@]4(O)C2)[C@@]2(O)CC[C@H](CO)[C@@]2(C)C[C@H]3OCOC)O[C@H]1C` [Compound 10, (3S,3aR,5R,5aS,5bR,9aR,11S,12aS,14aR,14bS)-3-(Hydroxymethyl)-5-(methoxymethoxy)-11-(((3aR,4R,6S,7S,7aR)-7-(methoxymethoxy)-2,2,6-trimethyltetrahydro-4H-[1,3]dioxolo[4,5-c]pyran-4-yl)oxy)-3a,8,8-trimethyltetradecahydro-6H-cyclopenta[7,8]phenanthro[4,4a-d][1,3]dioxine-12a,14b-diol] came in with an IC50 greater than 60 µM. Moreover, the “effect on other parameters of sperm movement (progressive motility, velocities, linearity, beat cross frequency)” value (“effect on other parameters” for short) in [3] (1 h incubation) is “directly block all parameters of sperm movement”. Also, the “maximum reduction of sperm motility” value in series [3] is 50–60%.

As to `COCO[C@@H]1[C@H]2OC(C)(C)O[C@H]2[C@H](O[C@H]2C[C@H]3OC(C)(C)OC[C@]34[C@@H]3[C@@H](CC[C@]4(O)C2)[C@@]2(O)CC[C@H](C#N)[C@@]2(C)C[C@H]3OCOC)O[C@H]1C` [Compound 11, (3S,3aR,5R,5aS,5bR,9aR,11S,12aS,14aR,14bS)-12a,14b-Dihydroxy-5-(methoxymethoxy)-11-(((3aR,4R,6S,7S,7aR)-7-(methoxymethoxy)-2,2,6-trimethyltetrahydro-4H-[1,3]dioxolo[4,5-c]pyran-4-yl)oxy)-3a,8,8-trimethylhexadecahydro-6H-cyclopenta[7,8]phenanthro[4,4a-d][1,3]dioxine-3-carbonitrile], in [1], the “reduced activity compared to ouabain” value is “about 10 fold”.

On to `COCO[C@H]1C[C@H]2OC(C)(C)OC[C@]23[C@@H]2[C@@H](CC[C@]3(O)C1)[C@@]1(OCOC)CC[C@H](CO)[C@@]1(C)C[C@H]2OCOC` [Compound 17, (3S,3aR,5R,5aS,5bR,9aR,11S,12aS,14aR,14bS)-3-(Hydroxymethyl)-5,11,14b-tris(methoxymethoxy)-3a,8,8-trimethyltetradecahydro-6H-cyclopenta[7,8]phenanthro[4,4a-d][1,3]dioxin-12a(1H)-ol], for which the IC50 in series [2] is greater than 60 µM. Also, the “effect on other parameters” value in series [3] (1 h incubation) is recorded as “directly block all parameters of sperm movement”. Further, the “maximum reduction of sperm motility” value in series [3] is on record as 50–60%.

Regarding `COc1ccc(-c2cn(C[C@H]3CC[C@]4(O)[C@@H]5CC[C@]6(O)C[C@@H](O)C[C@@H](O)[C@]6(CO)[C@H]5[C@H](O)C[C@]34C)nn2)cc1` [Compound 19, (1R,3S,5S,8R,9S,10R,11R,13R,14S,17S)-10-(Hydroxymethyl)-17-((4-(4-methoxyphenyl)-1H-1,2,3-triazol-1-yl)methyl)-13-methyltetradecahydro-5H-cyclopenta[a]phenanthrene-1,3,5,11,14(2H)-pentaol], in [1], the “loss of Na,K-ATPase α4 inhibitory activity versus comparator” value is listed as 7 orders of magnitude.

For `C[C@]12C[C@@H](O)[C@H]3[C@@H](CC[C@]4(O)C[C@@H](O)C[C@@H](O)[C@]34CO)[C@@]1(O)CC[C@@H]2c1cn(Cc2ccccc2)nn1` [Compound 25, (1R,3S,5S,8R,9S,10R,11R,13R,14S,17S)-17-(1-Benzyl-1H-1,2,3-triazol-4-yl)-10-(hydroxymethyl)-13-methyltetradecahydro-5H-cyclopenta[a]phenanthrene-1,3,5,11,14(2H)-pentaol], the “reduction of hyperactivation accompanying sperm capacitation” value in [4] was “approximately 70%”. For the same compound, the “increase of sperm Vm (plasma membrane depolarization)” value in series [5] is listed as “approximately 40%”. In series [6], the “effect on sperm intracellular pH” value is recorded as “caused intracellular sperm acidification”. In [2], this compound yielded an IC50 greater than 60 µM. The “decrease of total sperm motility” value in series [3] (10^–8 M and higher, 1 h incubation) is given as “approximately 60%”. The “effect on other parameters” value in [3] (1 h incubation) is recorded as “directly block all parameters of sperm movement”. In [3], the “maximum reduction of sperm motility” value is reported as 50–60%. Also, the “increase of [Ca2+]i in sperm” value in [7] was “approximately 40%”. In series [8], the “toxic effect on treated rats” value is listed as “did not exert any major toxic effect”.

Regarding `COCO[C@H]1C[C@H]2OC(C)(C)OC[C@]23[C@@H]2[C@@H](CC[C@]3(O)C1)[C@@]1(OCOC)CC[C@H](C#N)[C@@]1(C)C[C@H]2OCOC` [Compound 29, (3S,3aR,5R,5aS,5bR,9aR,11S,12aS,14aR,14bS)-12a-Hydroxy-5,11,14b-tris(methoxymethoxy)-3a,8,8-trimethylhexadecahydro-6H-cyclopenta[7,8]phenanthro[4,4a-d][1,3]dioxine-3-carbonitrile], the “loss of Na,K-ATPase α4 inhibitory activity versus comparator” value in [1] was 3 orders of magnitude.

Regarding `COCO[C@H]1C[C@H]2OC(C)(C)OC[C@]23[C@@H]2[C@@H](CC[C@]3(O)C1)[C@@]1(OCOC)CC[C@H](C(=O)O)[C@@]1(C)C[C@H]2OCOC` [Compound 32, (3S,3aR,5R,5aS,5bR,9aR,11S,12aS,14aR,14bS)-12a-Hydroxy-5,11,14b-tris(methoxymethoxy)-3a,8,8-trimethylhexadecahydro-6H-cyclopenta[7,8]phenanthro[4,4a-d][1,3]dioxine-3-carboxylic Acid], in series [1], the “reduced activity compared to ouabain” value is on record as “about 10 fold”.

As to `CO[C@H]1C[C@H](O[C@H]2CC[C@]3(C=O)[C@H]4CC[C@]5(C)[C@@H](C6=CC(=O)OC6)CC[C@]5(O)[C@@H]4CC[C@]3(O)C2)O[C@H](C)[C@H]1O` [cymarin, reference compound], the “IC50 for Na,K-ATPase α4 inhibition (Figure 1)” value in series [1] is 10^–8 to 10^–9 M.

Regarding `C[C@@H]1O[C@@H](O[C@H]2C[C@@H](O)[C@]3(CO)[C@H]4[C@H](O)C[C@]5(C)[C@@H](C6=CC(=O)OC6)CC[C@]5(O)[C@@H]4CC[C@]3(O)C2)[C@H](O)[C@H](O)[C@H]1O` [ouabain], the “sensitivity to ouabain, human Na,K-ATPase α4 versus α1” value in series [9] was roughly 100 fold.

For `C[C@]12CC[C@H]3[C@@H](CC[C@]4(O)C[C@@H](O)CC[C@]34C=O)[C@@]1(O)CC[C@@H]2C1=CC(=O)OC1` [strophanthidin, reference compound], in series [1], the “IC50 for Na,K-ATPase α4 inhibition (Figure 1)” value is on record as 10^–8 to 10^–9 M.
